Reference: paper PMC7417721, “Cell cycle exit during bortezomib‐induced osteogenic differentiation of mesenchymal stem cells was mediated by Xbp1s‐upregulated p21^Cip1 and p27^Kip1” (Journal of Cellular and Molecular Medicine, 2020)
Like-named read-outs stand apart in the source and are kept apart here.

How the values were obtained:
[1] = test system: cyclin D3, cyclin E1, Cdk2, Cdk4, p21Cip1, p27Kip1 in mBM-MSCs; experiment: Western blotting of cell cycle regulatory components (cyclins, CDKs, CKIs); format: cell-based, mouse; settings: 24 h
Description: (§1) Western blotting was performed as described previously. ^16 Briefly, mBM‐MSCs were cultured with indicated doses of bortezomib for 24 h; then, the cells were lysed in radioimmunoprecipitation assay (RIPA) buffer. Equal amount of proteins was loaded on 10% sodium dodecyl sulphate‐polyacrylamide gel electrophoresis (SDS‐PAGE) gel and was then electrotransferred to polyvinylidene difluoride (PVDF) membrane immunoblotted for specific primary antibodies. Immunoblots were visualized using horseradish peroxidase (HRP)‐conjugated secondary antibodies (Jackson ImmunoResearch Laboratories, West Grove, PA, USA) and the enhanced chemiluminescence (ECL) Western Blot Detection Kit (Phygene Life Sciences, Fuzhou, Fujian, China). The chemiluminescent blots were captured by using digital imaging with a charge‐coupled device (CCD) camera system MiniChemi 610 and analysed by Lane 1D™ analysis software (Sage, Beijing, China).

[2] = test system: Grp78, Chop, Xbp1s, Atf4 in mBM-MSCs; experiment: Western blotting of ER stress signalling proteins; format: cell-based, mouse; settings: 24 h
Description: as §1

[3] = test system: p21Cip1 and p27Kip1 mRNA in mBM-MSCs; experiment: Real-time PCR of p21Cip1 and p27Kip1 mRNA; format: cell-based, mouse; settings: 24 h
Description: Total RNA from cells was extracted using Ultrapure RNA Kit (DNase I) (CWBIO, Beijing, China) according to the manufacturer's instructions. Reverse transcription was performed using HiFiScript cDNA Synthesis Kit (CWBIO, Beijing, China). Real‐time PCR was performed using UltraSYBR Mixture (CWBIO, Beijing, China) and a CFX96™ Real‐Time PCR Detection System (Bio‐Rad, Hercules, CA, USA). The thermal cycling conditions included 2 min at 50°C and 10 min at 95°C, followed by 40 cycles of 95°C for 15 s, 58°C for 30 s and 72°C for 30 s. Mouse β‐actin was used as internal control. The relative expression levels of each gene were analysed using the 2^‐ΔΔCt method. The primers were designed using Primer3Plus platform (http://www.bioinformatics.nl/primer3plus) and synthesized by Sangon Biotech (Shanghai, China).

mBM-MSCs [4] = experiment: Cell cycle analysis (propidium iodide, flow cytometry); format: cell-based, mouse; settings: 24 h; for proportion of S phase cells: mean ± SEM of three experiments (control 32.017 ± 1.991); for percentage of cells in G0/G1 phase: mean ± SEM of three experiments (control 55.14 ± 5.132)
Description: mBM‐MSCs (5 × 10^5 cells) treated with various concentrations of bortezomib for 24 h were harvested, washed with PBS solution, fixed in 70% ethanol and kept at −20°C overnight. Cells were then resuspended in a buffer containing […] propidium iodide and […] RNase A (Solarbio Life Sciences, Beijing, China). Samples were analysed using a BD FACSCanto II flow cytometer. Data were acquired and analysed using CellQuest and ModFit software (BD Biosciences, San Jose, CA, USA).

[5] = test system: Runx2, Sp7, Col1A1, ALP, OCN/BGLAP in mBM-MSCs; experiment: Western blotting of osteogenesis-related proteins; format: cell-based, mouse; settings: indicated concentrations, 24 h, Figure S1
Description: as §1

mBM-MSCs [6] = experiment: EdU cell proliferation assay (flow cytometry); format: cell-based, mouse; settings: various concentrations, 24 h
Description: 5‐ethynyl‐2′‐deoxyuridine (EdU) incorporation assay was performed to measure cell proliferation with the kit (Molecular Probes, Eugene, OR, USA) according to the manufacturer's instructions. Briefly, mBM‐MSCs were seeded and grown at a density of 70%‐80% confluence in 35‐mm culture dishes and then treated with various concentrations of bortezomib for 24 h. EdU was added to the culture media 4 h before the harvest. The cells were detected by flow cytometry using a BD FACSCanto II instrument. Data were analysed using FlowJo 7.6.2 software (Tree Star, Ashland, OR, USA).

mBM-MSCs [7] = experiment: MTT cell viability assay; settings: for IC50: Mus musculus, read-out: IC50, cell viability
Description: mBM‐MSCs were seeded at a cell density of 5 × 10^3 cells/mL in 96‐well plates and allowed to attach to the wells for 24 h. Cells were then treated with various concentrations of bortezomib. After 24‐h and 48‐h treatment, 10 µL of 3‐(4,5‐dimethylthiazol‐2‐yl)‐2,5‐diphenyltetrazolium bromide (MTT) solution (Sigma‐Aldrich, Burlington, MA, USA) was added to each well to a final concentration of 0.5 mg/mL. The supernatant medium was then discarded, and a volume of 150 µL of DMSO was added to each well to lyse the crystal. The plates were agitated for 15 min to ensure the dissolution of any remaining crystals. The absorbance in the relevant wells was measured at 490 nm using an Ultra Microplate Reader (ELx800, BioTek Instruments, Winooski, VT, USA). Each experiment was reproduced three times in duplicate.

mBM-MSCs [8] = experiment: Alizarin Red S staining of mineralized matrix (osteogenic differentiation); format: cell-based, mouse; settings: 8 days
Description: mBM‐MSCs were plated in 35‐mm‐diameter culture dishes and grown in DMEM containing 10% FBS, 100 U/mL penicillin, 100 μg/mL streptomycin, and 2 mM L‐glutamine at 37°C in a humidified incubator with 5% CO2 in the air. When cell density reached 70%‐80% confluence, the cells were subsequently cultured in the presence or absence of bortezomib at the indicated concentrations for 8 days. The culture medium was changed every 3 days. mBM‐MSCs cultured in an osteogenic induction media containing […] ascorbic acid and 10 mM β‐glycerophosphate sodium were used as a positive control. For Alizarin Red S (ARS) (Solarbio Life Sciences, Beijing, China) staining, mBM‐MSCs were fixed with 4% formaldehyde for 10 min, then rinsed twice with phosphatebuffered saline (PBS) at room temperature. The cells were then stained with 1% ARS (pH 4.2) for up to 15 min at room temperature. Images of mBM‐MSCs stained with ARS were captured and stored digitally.

[9] = MKC3946 10 nM with bortezomib 2.5 nM

## Cn1cc(-c2ccc3c(c2)CCN3C(=O)Cc2cccc(C(F)(F)F)c2)c2c(N)ncnc21 [GSK2606414]
[1]; in the presence of bortezomib
  expression of p21Cip1 (protein): no significant effects
  expression of p27Kip1 (protein): no significant effects
[2]; in the presence of bortezomib
  Atf4 (protein): marked decrease

## CN1CCN(C(=O)c2ccc(-c3ccc4c(C=O)c(O)ccc4c3)s2)CC1 [MKC3946]
[3]; [9]
  mRNA level of p21Cip1: aborted up‐regulation
  mRNA level of p27Kip1: aborted up‐regulation
[1]; in the presence of bortezomib
  expression of p21Cip1 (protein): decrease
  expression of p27Kip1 (protein): decrease
mBM-MSCs [4]; 10 nM MKC3946 alone, Figure S2
  cell cycle distribution: no effects
mBM-MSCs [4]; combination of 10 nM MKC3946 with 2.5 nM bortezomib, Figure S2
  percentage of S phase: significantly decreased
[2]; in the presence of bortezomib
  bortezomib-induced Xbp1s (protein): aborted

## CC(C)C[C@H](NC(=O)[C@H](Cc1ccccc1)NC(=O)c1cnccn1)B(O)O [bortezomib, Bortezomib]
[3]; 2.5 nM
  mRNA level of p21Cip1: significantly up‐regulated
  mRNA level of p27Kip1: significantly up‐regulated
[5]
  expression of Col1A1: induce the expression
  expression of Runx2: induce the expression
  expression of Sp7: induce the expression
  expression of alkaline phosphatase (ALP): induce the expression
  expression of osteocalcin (OCN/BGLAP): induce the expression
mBM-MSCs [6]
  numbers of EdU-positive mBM-MSCs: dose‐dependently decreased
[1]; indicated concentrations
  expression of Cdk2 (protein): markedly decreased
  expression of Cdk4 (protein): markedly decreased
  expression of cyclin D3 (protein): no effects
  expression of cyclin E1 (protein): no effects
  expression of p21Cip1 (protein): significantly increased
  expression of p27Kip1 (protein): significantly increased
mBM-MSCs [7]; 24 h
  IC50: 8.89 nM
mBM-MSCs [7]; 48 h
  IC50: 6.64 nM
mBM-MSCs [7]; mBM-MSCs, MTT, 24 h and 48 h
  doses resulting in cytotoxicity to mBM-MSCs: higher than 5 nM
mBM-MSCs [8]; 2.5 nM
  calcium deposition (ARS staining) versus control cells: much higher amounts of calcium phosphate crystals than the control cells
mBM-MSCs [8]; 5 nM
  calcium deposition (ARS staining) versus control cells: much higher amounts of calcium phosphate crystals than the control cells
mBM-MSCs [4]; 2.5 nM and 5 nM
  proportion of cells in the G2/M phase: no significant change
mBM-MSCs [4]; 2.5 nM
  proportion of S phase cells: 21.807 ± 2.844%
  percentage of cells in G0/G1 phase: 67.36 ± 6.067%
mBM-MSCs [4]; 5 nM
  proportion of S phase cells: 19.940 ± 4.321%
  percentage of cells in G0/G1 phase: 68.117 ± 2.743%
[2]; indicated concentrations
  expression of Atf4: activated
  expression of ER stress marker Chop: increased expression levels
  expression of ER stress marker Grp78: increased expression levels
  expression of Xbp1s: activated
